In the experiment the test system is MV-4-11 cells. The experiment can be described thus: Gene expression microarray analysis (Affymetrix PrimeView) and GSEA. The format is cell-based, human. Details: RFU PODN (11730768_x_at) / Fold change /veh PODN (11730768_x_at) / RFU LINC00158 (11744669_a_at) / Fold change /veh LINC00158 (11744669_a_at) / RFU DUSP10 (11751237_a_at) / Fold change /veh DUSP10 (11751237_a_at) / RFU ID3 (11757404_x_at) / Fold change /veh ID3 (11757404_x_at) / RFU PLEKHG5 (11737974_s_at) / Fold change /veh PLEKHG5 (11737974_s_at) / RFU LRRC4B (11730491_at) / Fold change /veh LRRC4B (11730491_at) / RFU GIMAP4 (11747438_a_at) / Fold change /veh GIMAP4 (11747438_a_at) / RFU KRT8 (11758183_x_at) / Fold change /veh KRT8 (11758183_x_at) / RFU CNN1 (11734310_a_at) / Fold change /veh CNN1 (11734310_a_at) / RFU VPS37D (11726825_at) / Fold change /veh VPS37D (11726825_at) / RFU C10orf10 (11716522_x_at) / Fold change /veh C10orf10 (11716522_x_at) / RFU KIR2DL2 /// KIR2DL4 /// KIR2DL5A /// KIR2DL5B /// KIR2DS1 /// KIR2DS2 /// KIR2DS3 /// KIR2DS4 /// KIR3DL3 /// KIR3DL3 /// KIR3DS1 (11738374_at) / Fold change /veh KIR2DL2 /// KIR2DL4 /// KIR2DL5A /// KIR2DL5B /// KIR2DS1 /// KIR2DS2 /// KIR2DS3 /// KIR2DS4 /// KIR3DL3 /// KIR3DL3 /// KIR3DS1 (11738374_at) / RFU C1QL1 (11718748_at) / Fold change /veh C1QL1 (11718748_at) / RFU TMPRSS4 (11747572_a_at) / Fold change /veh TMPRSS4 (11747572_a_at) / RFU HAMP (11756126_x_at) / Fold change /veh HAMP (11756126_x_at) / RFU RNFT2 (11725882_a_at) / Fold change /veh RNFT2 (11725882_a_at) / RFU NR4A2 (11747474_a_at) / Fold change /veh NR4A2 (11747474_a_at) / RFU ABCC12 (11746883_a_at) / Fold change /veh ABCC12 (11746883_a_at) / RFU TMEM136 (11760407_x_at) / Fold change /veh TMEM136 (11760407_x_at) / RFU CLDN22 /// WWC2 (11732394_at) / Fold change /veh CLDN22 /// WWC2 (11732394_at) / RFU HLA-DPB1 (11760878_x_at) / Fold change /veh HLA-DPB1 (11760878_x_at) / RFU SPINT1 (11716480_a_at) / Fold change /veh SPINT1 (11716480_a_at) / RFU GAP43 (11754022_s_at) / Fold change /veh GAP43 (11754022_s_at) / RFU A4GNT (11735810_at) / Fold change /veh A4GNT (11735810_at) / RFU PRB3 (11715151_x_at) / Fold change /veh PRB3 (11715151_x_at) / RFU TUBB4B (11761932_at) / Fold change /veh TUBB4B (11761932_at) / RFU CAPN14 (11732068_a_at) / Fold change /veh CAPN14 (11732068_a_at) / RFU TMCC2 (11721928_a_at) / Fold change /veh TMCC2 (11721928_a_at) / RFU IRGQ (11745062_a_at) / Fold change /veh IRGQ (11745062_a_at) / RFU FAM174B (11720279_a_at) / Fold change /veh FAM174B (11720279_a_at) / RFU TMPRSS4 (11748680_a_at) / Fold change /veh TMPRSS4 (11748680_a_at) / RFU FAM212B (11763350_a_at) / Fold change /veh FAM212B (11763350_a_at) / RFU PLEKHG5 (11743358_a_at) / Fold change /veh PLEKHG5 (11743358_a_at) / RFU ZSCAN30 (11745921_a_at) / Fold change /veh ZSCAN30 (11745921_a_at) / RFU CMKLR1 (11741424_a_at) / Fold change /veh CMKLR1 (11741424_a_at) / RFU LOC101060620 /// MAPK8IP1 (11723275_at) / Fold change /veh LOC101060620 /// MAPK8IP1 (11723275_at) / RFU SPTSSB (11747773_x_at) / Fold change /veh SPTSSB (11747773_x_at) / RFU PRSS12 (11739890_at) / Fold change /veh PRSS12 (11739890_at) / RFU BIN1 (11741810_x_at) / Fold change /veh BIN1 (11741810_x_at) / RFU WNT11 (11732464_a_at) / Fold change /veh WNT11 (11732464_a_at) / RFU C10orf10 (11716521_a_at) / Fold change /veh C10orf10 (11716521_a_at) / RFU C5orf56 (11738089_at) / Fold change /veh C5orf56 (11738089_at) / RFU CYB561 (11721691_x_at) / Fold change /veh CYB561 (11721691_x_at) / RFU ANKRD19P (11752326_a_at) / Fold change /veh ANKRD19P (11752326_a_at) / RFU OR2T12 /// OR2T33 /// OR2T8 (11738714_s_at) / Fold change /veh OR2T12 /// OR2T33 /// OR2T8 (11738714_s_at) / RFU VCAN (11748164_a_at) / Fold change /veh VCAN (11748164_a_at) / RFU JSRP1 (11732532_at) / Fold change /veh JSRP1 (11732532_at) / RFU KRTAP10-11 (11738290_x_at) / Fold change /veh KRTAP10-11 (11738290_x_at) / RFU MYO3A (11730013_a_at) / Fold change /veh MYO3A (11730013_a_at) / RFU EBF3 (11725865_a_at) / Fold change /veh EBF3 (11725865_a_at) / RFU CAMK2N1 (11719241_x_at) / Fold change /veh CAMK2N1 (11719241_x_at) / RFU C5orf56 (11738088_a_at) / Fold change /veh C5orf56 (11738088_a_at) / RFU OLFML3 (11715873_a_at) / Fold change /veh OLFML3 (11715873_a_at) / RFU LOC100653217 /// NTM (11731650_a_at) / Fold change /veh LOC100653217 /// NTM (11731650_a_at) / RFU MAPK11 (11762145_a_at) / Fold change /veh MAPK11 (11762145_a_at) / RFU FIZ1 (11724087_x_at) / Fold change /veh FIZ1 (11724087_x_at) / RFU OASL (11726364_x_at) / Fold change /veh OASL (11726364_x_at) / RFU SOX15 (11748057_x_at) / Fold change /veh SOX15 (11748057_x_at) / RFU CD79A (11719716_a_at) / Fold change /veh CD79A (11719716_a_at) / RFU HIST1H1D (11736915_at) / Fold change /veh HIST1H1D (11736915_at) / RFU CASKIN2 (11723855_a_at) / Fold change /veh CASKIN2 (11723855_a_at) / RFU LOC730098 (11760151_x_at) / Fold change /veh LOC730098 (11760151_x_at) / RFU OR4N2 (11742367_at) / Fold change /veh OR4N2 (11742367_at) / RFU PRRT2 (11749266_a_at) / Fold change /veh PRRT2 (11749266_a_at) / RFU SNX32 (11753110_a_at) / Fold change /veh SNX32 (11753110_a_at) / RFU CDHR5 (11726645_a_at) / Fold change /veh CDHR5 (11726645_a_at) / RFU RCAN1 (11760418_a_at) / Fold change /veh RCAN1 (11760418_a_at) / RFU FAM167A (11723789_a_at) / Fold change /veh FAM167A (11723789_a_at) / RFU FAM26E (11764081_at) / Fold change /veh FAM26E (11764081_at) / RFU ISYNA1 (11749810_s_at) / Fold change /veh ISYNA1 (11749810_s_at) / RFU ACY1 (11761880_at) / Fold change /veh ACY1 (11761880_at) / RFU 11764098_at / Fold change /veh 11764098_at / RFU SAMD14 (11745864_x_at) / Fold change /veh SAMD14 (11745864_x_at) / RFU NPB (11741838_a_at) / Fold change /veh NPB (11741838_a_at) / RFU TMPRSS6 (11731388_a_at) / Fold change /veh TMPRSS6 (11731388_a_at) / RFU KRTAP10-2 (11738614_at) / Fold change /veh KRTAP10-2 (11738614_at) / RFU ARHGAP8 /// PRR5-ARHGAP8 (11727945_x_at) / Fold change /veh ARHGAP8 /// PRR5-ARHGAP8 (11727945_x_at) / RFU KRTAP5-7 /// NADSYN1 (11734609_at) / Fold change /veh KRTAP5-7 /// NADSYN1 (11734609_at) / RFU RASL12 (11751679_a_at) / Fold change /veh RASL12 (11751679_a_at) / RFU CDKN2B (11736163_a_at) / Fold change /veh CDKN2B (11736163_a_at) / RFU PRF1 (11729649_at) / Fold change /veh PRF1 (11729649_at) / RFU, ZNF638 /// ZNF638-IT1 / Fold change vs veh, ZNF638 /// ZNF638-IT1 / RFU, PANK3 / Fold change vs veh, PANK3 / RFU, SH3YL1 / Fold change vs veh, SH3YL1 / RFU, ZEB2 / Fold change vs veh, ZEB2 / RFU, NRIP1 / Fold change vs veh, NRIP1 / RFU, PTTG1IP / Fold change vs veh, PTTG1IP / RFU, CAPN2 / Fold change vs veh, CAPN2 / RFU, MED14 / Fold change vs veh, MED14 / RFU, SNORA58 / Fold change vs veh, SNORA58 / RFU, C1orf63 / Fold change vs veh, C1orf63 / RFU, LRRFIP1 / Fold change vs veh, LRRFIP1 / RFU, NDUFAF7 / Fold change vs veh, NDUFAF7 / RFU, SLC12A2 / Fold change vs veh, SLC12A2 / RFU, IBTK / Fold change vs veh, IBTK / RFU, ESF1 / Fold change vs veh, ESF1 / Fold change vs veh, TMEM50B / RFU, TAOK1 / Fold change vs veh, TAOK1 / RFU, ACBD3 / Fold change vs veh, ACBD3 / RFU, TMA16 / Fold change vs veh, TMA16 / RFU, RWDD3 / Fold change vs veh, RWDD3 / RFU, BCAT1 / Fold change vs veh, BCAT1 / RFU, EDEM3 / Fold change vs veh, EDEM3 / RFU, TMEM33 / Fold change vs veh, TMEM33 / RFU, WDR75 / Fold change vs veh, WDR75 / RFU, AHCTF1 / Fold change vs veh, AHCTF1 / RFU, TFRC / Fold change vs veh, TFRC / RFU, ZDHHC17 / Fold change vs veh, ZDHHC17 / RFU, NOM1 / Fold change vs veh, NOM1 / RFU, ARL8B / Fold change vs veh, ARL8B / RFU, ZBTB11 / Fold change vs veh, ZBTB11 / RFU, TAMM41 / Fold change vs veh, TAMM41 / RFU, KIAA1704 /// LOC100996395 / Fold change vs veh, KIAA1704 /// LOC100996395 / RFU, ING1 / Fold change vs veh, ING1 / RFU, TRMT61B / Fold change vs veh, TRMT61B / RFU, FUBP3 / Fold change vs veh, FUBP3 / RFU, TP53 / Fold change vs veh, TP53 / RFU, TNKS2 / Fold change vs veh, TNKS2 / RFU, ZFP14 / Fold change vs veh, ZFP14 / RFU, ACTR2 / Fold change vs veh, ACTR2 / RFU, PPP3R1 / Fold change vs veh, PPP3R1 / RFU, PIK3R1 / Fold change vs veh, PIK3R1 / RFU, HNRNPA1 / Fold change vs veh, HNRNPA1 / RFU, RNF170 / Fold change vs veh, RNF170 / RFU, ZNF28 / Fold change vs veh, ZNF28 / RFU, RNGTT / Fold change vs veh, RNGTT / RFU, OGT / Fold change vs veh, OGT / RFU, BRD1 / Fold change vs veh, BRD1 / RFU, MARS / Fold change vs veh, MARS / RFU, ZNF655 / Fold change vs veh, ZNF655 / RFU, FAHD1 / Fold change vs veh, FAHD1 / RFU, BDP1 / Fold change vs veh, BDP1 / RFU, LRRCC1 / Fold change vs veh, LRRCC1 / RFU, ARID1A / Fold change vs veh, ARID1A / RFU, ZNF146 / Fold change vs veh, ZNF146 / RFU, ZNF330 / Fold change vs veh, ZNF330 / RFU, GPN3 / Fold change vs veh, GPN3 / RFU, C9orf123 / Fold change vs veh, C9orf123 / RFU, N4BP2L2 / Fold change vs veh, N4BP2L2 / RFU, ARFIP1 / Fold change vs veh, ARFIP1 / RFU, FAM179B / Fold change vs veh, FAM179B / RFU, BCL10 / Fold change vs veh, BCL10 / RFU, UHRF1BP1L / Fold change vs veh, UHRF1BP1L / RFU, BET1 / Fold change vs veh, BET1 / RFU, CNOT2 / Fold change vs veh, CNOT2 / RFU, ZNF268 / Fold change vs veh, ZNF268 / Fold change vs veh, ZNF507 / RFU, DGCR2 / Fold change vs veh, DGCR2 / RFU, WDSUB1 / Fold change vs veh, WDSUB1 / Fold change vs veh, HSP90B1 /// MIR3652 / RFU, ADSS / Fold change vs veh, ADSS / RFU, GK / Fold change vs veh, GK / RFU, ZNF148 / Fold change vs veh, ZNF148 / RFU, TAF9 / Fold change vs veh, TAF9 / RFU, SLC1A5 / Fold change vs veh, SLC1A5 / RFU, SLMO2 / Fold change vs veh, SLMO2 / RFU, ABCC4 / Fold change vs veh, ABCC4 / RFU, LOC101060439 /// RAP1B / Fold change vs veh, LOC101060439 /// RAP1B / RFU, RFX7 / Fold change vs veh, RFX7 / RFU, GTPBP10 / Fold change vs veh, GTPBP10 / RFU, CNEP1R1 / Fold change vs veh, CNEP1R1 / RFU, BIVM-ERCC5 /// ERCC5 / Fold change vs veh, BIVM-ERCC5 /// ERCC5 / RFU, ILF3 / Fold change vs veh, ILF3 / RFU 11762660_at / Fold change /veh 11762660_at / RFU VCAN (11757783_s_at) / Fold change /veh VCAN (11757783_s_at) / RFU DDX43 (11728927_at) / Fold change /veh DDX43 (11728927_at) / RFU KRT8 (11758188_x_at) / Fold change /veh KRT8 (11758188_x_at) / RFU NKD1 (11759106_at) / Fold change /veh NKD1 (11759106_at) / RFU SRD5A1 (11742802_a_at) / Fold change /veh SRD5A1 (11742802_a_at) / RFU TPSAB1 /// TPSB2 (11721975_s_at) / Fold change /veh TPSAB1 /// TPSB2 (11721975_s_at) / RFU GSTM3 (11746129_a_at) / Fold change /veh GSTM3 (11746129_a_at) / RFU IL23R (11737362_x_at) / Fold change /veh IL23R (11737362_x_at) / RFU TMEM51 (11727254_a_at) / Fold change /veh TMEM51 (11727254_a_at) / RFU PIWIL2 (11732686_x_at) / Fold change /veh PIWIL2 (11732686_x_at) / RFU ORM1 (11744905_x_at) / Fold change /veh ORM1 (11744905_x_at) / RFU CCDC152 (11743942_at) / Fold change /veh CCDC152 (11743942_at) / RFU ECM1 (11717891_a_at) / Fold change /veh ECM1 (11717891_a_at) / RFU IL23R (11748794_a_at) / Fold change /veh IL23R (11748794_a_at) / RFU TNFAIP8L3 (11732012_x_at) / Fold change /veh TNFAIP8L3 (11732012_x_at) / RFU MBOAT4 (11741988_at) / Fold change /veh MBOAT4 (11741988_at) / RFU 11764193_at / Fold change /veh 11764193_at / RFU TMEM53 (11763286_at) / Fold change /veh TMEM53 (11763286_at) / RFU MAGEB2 (11727129_at) / Fold change /veh MAGEB2 (11727129_at) / RFU TMEM200A (11744735_a_at) / Fold change /veh TMEM200A (11744735_a_at) / RFU CCDC152 (11751479_a_at) / Fold change /veh CCDC152 (11751479_a_at) / RFU FAM211A (11726209_a_at) / Fold change /veh FAM211A (11726209_a_at) / RFU RGS16 (11746705_a_at) / Fold change /veh RGS16 (11746705_a_at) / RFU VCAN (11755009_s_at) / Fold change /veh VCAN (11755009_s_at) / RFU RHOB (11743442_s_at) / Fold change /veh RHOB (11743442_s_at) / RFU RGS16 (11720943_a_at) / Fold change /veh RGS16 (11720943_a_at) / RFU RGS16 (11720944_at) / Fold change /veh RGS16 (11720944_at) / RFU, VPS4B / Fold change vs veh, VPS4B / RFU, CREB1 / Fold change vs veh, CREB1 / RFU, DNAJC13 / Fold change vs veh, DNAJC13 / RFU, GNAQ / Fold change vs veh, GNAQ / RFU, CDK5R1 / Fold change vs veh, CDK5R1 / RFU, ZRANB3 / Fold change vs veh, ZRANB3 / RFU, CUL4A / Fold change vs veh, CUL4A / RFU, CCNY / Fold change vs veh, CCNY / RFU, UFL1 / Fold change vs veh, UFL1 / RFU, COG3 / Fold change vs veh, COG3 / RFU, DIAPH2 / Fold change vs veh, DIAPH2 / RFU, SKA2 / Fold change vs veh, SKA2 / RFU, AFF3 / Fold change vs veh, AFF3 / RFU, LMF1 / Fold change vs veh, LMF1 / RFU, IPO11 / Fold change vs veh, IPO11 / RFU, DFFB / Fold change vs veh, DFFB / RFU, FOXP1 / Fold change vs veh, FOXP1 / RFU, CARD8 / Fold change vs veh, CARD8 / RFU, STRN3 / Fold change vs veh, STRN3 / RFU, ADK / Fold change vs veh, ADK / RFU, RASSF2 / Fold change vs veh, RASSF2 / RFU, WIPF1 / Fold change vs veh, WIPF1 / RFU, LARP1B / Fold change vs veh, LARP1B / RFU, RASA1 / Fold change vs veh, RASA1 / RFU, RB1 / Fold change vs veh, RB1 / RFU, PPFIA1 / Fold change vs veh, PPFIA1 / RFU, MAT2A / Fold change vs veh, MAT2A / RFU, CCT5 / Fold change vs veh, CCT5 / RFU, WDR92 / Fold change vs veh, WDR92 / RFU, CUX1 / Fold change vs veh, CUX1 / RFU, TTC7A / Fold change vs veh, TTC7A / RFU, TMEM135 / Fold change vs veh, TMEM135 / RFU, DEPTOR / Fold change vs veh, DEPTOR / RFU, CPM / Fold change vs veh, CPM / RFU, DNAJB6 / Fold change vs veh, DNAJB6 / RFU, CACNA2D3 / Fold change vs veh, CACNA2D3 / RFU, DTX4 / Fold change vs veh, DTX4 / RFU, TFCP2 / Fold change vs veh, TFCP2 / RFU, GMCL1 /// GMCL1P1 / Fold change vs veh, GMCL1 /// GMCL1P1 / RFU, AEBP2 / Fold change vs veh, AEBP2 / RFU, SNHG1 /// SNORD22 /// SNORD25 /// SNORD26 /// SNORD27 /// SNORD28 /// SNORD29 /// SNORD31 / Fold change vs veh, SNHG1 /// SNORD22 /// SNORD25 /// SNORD26 /// SNORD27 /// SNORD28 /// SNORD29 /// SNORD31 / Fold change (Aza/veh), C12orf56 (ProbeSet 11735607_a_at) / Fold change (ACY-1035/veh), C12orf56 (ProbeSet 11735607_a_at) / Fold change (Aza/veh), FGFR1OP (ProbeSet 11751329_s_at) / Fold change (ACY-1035/veh), FGFR1OP (ProbeSet 11751329_s_at) / Fold change (Aza/veh), VPS36 (ProbeSet 11739960_a_at) / Fold change (ACY-1035/veh), VPS36 (ProbeSet 11739960_a_at) / RFU SYPL1 (11715823_x_at) / Fold change /veh SYPL1 (11715823_x_at) / RFU IGFBP7 (11715501_s_at) / Fold change /veh IGFBP7 (11715501_s_at) / RFU REEP3 (11722064_at) / Fold change /veh REEP3 (11722064_at) / RFU IGLL1 (11728026_x_at) / Fold change /veh IGLL1 (11728026_x_at): dose or concentration left out as unconfirmed. As to conditions: ProbeSet 11718977_a_at; LIST B.

Consider `Nc1ncn([C@@H]2O[C@H](CO)[C@@H](O)[C@H]2O)c(=O)n1` [azacitidine], for which the “Fold change vs veh, CAPN2” value was 0.92.

(Values after PMC5218480 (PLoS ONE, 2017).)
